According to US10501498B2 (BGI SHENZHEN, priority 2014, dated 2019):

System: HVA calcium channel
Assay type: cell-based, rat

SMILES: COC(=O)C1=C(C)NC(C)=C(C(=O)OC)C1c1ccccc1[N+](=O)[O-] [Nifedipine, reference compound]
- current after loading: −734.31 pA
- inhibition rate (10 µM): 50.09%
